Data on four molecules can be found in PubChem BioAssay (NCI).

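Five concentrations, 48 hours, 96-well plates. The concentration for full growth arrest is given as TGI.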

The first test deals with HL-60(TB) leukemia. As to the kind of experiment: inhibition of tumour cell growth, NCI panel, 48 h.
In turn, `COc1ccc([C@H]2C=[N+]([O-])O[C@H](OC3CCCC3)[C@@H]2OC(C)=O)cc1OC` returned a TGI of 39.1 µM.

As to `O=[N+]([O-])c1cccc2c(N=Nc3ccc4ccccc4c3O)c(O)cc(S(=O)(=O)O)c12`, the TGI is 91.5 µM.

The next test concerns MDA-N. Put plainly: inhibition of tumour cell growth, NCI panel, 48 h.
As to `CON(C)C(=O)C1CCCO1` (configuration not stated), the TGI was more than 100 µM.

Molecule `O=C1OC(c2ccccc2)N(C(=O)c2ccccc2)C1Cc1ccc(OCc2ccccc2)cc1` (configuration not stated) gave a TGI of more than 100 µM.

`COc1ccc([C@H]2C=[N+]([O-])O[C@H](OC3CCCC3)[C@@H]2OC(C)=O)cc1OC`: the TGI was found to be 69.2 µM.

With `O=[N+]([O-])c1cccc2c(N=Nc3ccc4ccccc4c3O)c(O)cc(S(=O)(=O)O)c12`, the TGI was more than 100 µM.

Another test relates to HOP-62 NSCLC. As to the kind of experiment: inhibition of tumour cell growth, NCI panel, 48 h.
Consider `CON(C)C(=O)C1CCCO1` (configuration not stated), for which the TGI was more than 100 µM.

`O=C1OC(c2ccccc2)N(C(=O)c2ccccc2)C1Cc1ccc(OCc2ccccc2)cc1` (configuration not stated) came in with a TGI of more than 100 µM.

Molecule `COc1ccc([C@H]2C=[N+]([O-])O[C@H](OC3CCCC3)[C@@H]2OC(C)=O)cc1OC` displayed a TGI of more than 100 µM.

As to `O=[N+]([O-])c1cccc2c(N=Nc3ccc4ccccc4c3O)c(O)cc(S(=O)(=O)O)c12`, the TGI is more than 100 µM.

In the next test the test system is LOX IMVI melanoma. Put plainly: inhibition of tumour cell growth, NCI panel, 48 h.
Regarding `CON(C)C(=O)C1CCCO1` (configuration not stated), the TGI was more than 100 µM.

Turning to `O=C1OC(c2ccccc2)N(C(=O)c2ccccc2)C1Cc1ccc(OCc2ccccc2)cc1` (configuration not stated), the TGI was more than 100 µM.

The molecule `COc1ccc([C@H]2C=[N+]([O-])O[C@H](OC3CCCC3)[C@@H]2OC(C)=O)cc1OC` came in with a TGI of 31.3 µM.

Consider `O=[N+]([O-])c1cccc2c(N=Nc3ccc4ccccc4c3O)c(O)cc(S(=O)(=O)O)c12`, for which the TGI was more than 100 µM.

The subject of the next test is SNB-75 CNS. Put plainly: inhibition of tumour cell growth, NCI panel, 48 h.
For `CON(C)C(=O)C1CCCO1` (configuration not stated), the TGI was more than 100 µM.

In turn, `O=C1OC(c2ccccc2)N(C(=O)c2ccccc2)C1Cc1ccc(OCc2ccccc2)cc1` (configuration not stated) had a TGI of more than 100 µM.

In turn, `COc1ccc([C@H]2C=[N+]([O-])O[C@H](OC3CCCC3)[C@@H]2OC(C)=O)cc1OC` yielded a TGI of more than 100 µM.

Turning to `O=[N+]([O-])c1cccc2c(N=Nc3ccc4ccccc4c3O)c(O)cc(S(=O)(=O)O)c12`, the TGI was more than 100 µM.

For the next test, the system named is 786-0 renal. Put plainly: inhibition of tumour cell growth, NCI panel, 48 h.
As to `CON(C)C(=O)C1CCCO1` (configuration not stated), the TGI is more than 100 µM.

Take `O=C1OC(c2ccccc2)N(C(=O)c2ccccc2)C1Cc1ccc(OCc2ccccc2)cc1` (configuration not stated): the TGI is more than 100 µM.

Turning to `O=[N+]([O-])c1cccc2c(N=Nc3ccc4ccccc4c3O)c(O)cc(S(=O)(=O)O)c12`, the TGI was more than 100 µM.

In the next test the test system is SNB-19 CNS. Put plainly: inhibition of tumour cell growth, NCI panel, 48 h.
Turning to `CON(C)C(=O)C1CCCO1` (configuration not stated), the TGI is more than 100 µM.

In turn, `O=C1OC(c2ccccc2)N(C(=O)c2ccccc2)C1Cc1ccc(OCc2ccccc2)cc1` (configuration not stated) registered a TGI of more than 100 µM.

In turn, `COc1ccc([C@H]2C=[N+]([O-])O[C@H](OC3CCCC3)[C@@H]2OC(C)=O)cc1OC` gave a TGI of more than 100 µM.

Molecule `O=[N+]([O-])c1cccc2c(N=Nc3ccc4ccccc4c3O)c(O)cc(S(=O)(=O)O)c12` returned a TGI of more than 100 µM.

For a further test, the system named is RPMI-8226 leukemia. Put plainly: inhibition of tumour cell growth, NCI panel, 48 h.
The molecule `CON(C)C(=O)C1CCCO1` (configuration not stated) came in with a TGI of more than 100 µM.

`O=C1OC(c2ccccc2)N(C(=O)c2ccccc2)C1Cc1ccc(OCc2ccccc2)cc1` (configuration not stated): the TGI is more than 100 µM.

Molecule `COc1ccc([C@H]2C=[N+]([O-])O[C@H](OC3CCCC3)[C@@H]2OC(C)=O)cc1OC` registered a TGI of more than 100 µM.

As for `O=[N+]([O-])c1cccc2c(N=Nc3ccc4ccccc4c3O)c(O)cc(S(=O)(=O)O)c12`, the TGI is more than 100 µM.

The next test has as its system HCT-15 colon. Put plainly: inhibition of tumour cell growth, NCI panel, 48 h.
As for `CON(C)C(=O)C1CCCO1` (configuration not stated), the TGI was more than 100 µM.

In the case of `O=C1OC(c2ccccc2)N(C(=O)c2ccccc2)C1Cc1ccc(OCc2ccccc2)cc1` (configuration not stated), the TGI was more than 100 µM.

Regarding `COc1ccc([C@H]2C=[N+]([O-])O[C@H](OC3CCCC3)[C@@H]2OC(C)=O)cc1OC`, the TGI is 78.5 µM.

Regarding `O=[N+]([O-])c1cccc2c(N=Nc3ccc4ccccc4c3O)c(O)cc(S(=O)(=O)O)c12`, the TGI was more than 100 µM.

A further test concerns MALME-3M melanoma. As to the kind of experiment: inhibition of tumour cell growth, NCI panel, 48 h.
As to `COc1ccc([C@H]2C=[N+]([O-])O[C@H](OC3CCCC3)[C@@H]2OC(C)=O)cc1OC`, the TGI came out at 51.2 µM.

In the case of `O=[N+]([O-])c1cccc2c(N=Nc3ccc4ccccc4c3O)c(O)cc(S(=O)(=O)O)c12`, the TGI turned out to be 80.6 µM.

The subject of the next test is UACC-62 melanoma. As to the kind of experiment: inhibition of tumour cell growth, NCI panel, 48 h.
In turn, `CON(C)C(=O)C1CCCO1` (configuration not stated) gave a TGI of more than 100 µM.

In the case of `O=C1OC(c2ccccc2)N(C(=O)c2ccccc2)C1Cc1ccc(OCc2ccccc2)cc1` (configuration not stated), the TGI is more than 100 µM.

`COc1ccc([C@H]2C=[N+]([O-])O[C@H](OC3CCCC3)[C@@H]2OC(C)=O)cc1OC` displayed a TGI of 77.7 µM.

In turn, `O=[N+]([O-])c1cccc2c(N=Nc3ccc4ccccc4c3O)c(O)cc(S(=O)(=O)O)c12` showed a TGI of more than 100 µM.

The test system of another test is IGROV1 ovarian. Put plainly: inhibition of tumour cell growth, NCI panel, 48 h.
With `CON(C)C(=O)C1CCCO1` (configuration not stated), the TGI was more than 100 µM.

`O=C1OC(c2ccccc2)N(C(=O)c2ccccc2)C1Cc1ccc(OCc2ccccc2)cc1` (configuration not stated): the TGI was more than 100 µM.

`COc1ccc([C@H]2C=[N+]([O-])O[C@H](OC3CCCC3)[C@@H]2OC(C)=O)cc1OC` displayed a TGI of 52.4 µM.

In turn, `O=[N+]([O-])c1cccc2c(N=Nc3ccc4ccccc4c3O)c(O)cc(S(=O)(=O)O)c12` yielded a TGI of more than 100 µM.

The test system of another test is BT-549 breast. Put plainly: inhibition of tumour cell growth, NCI panel, 48 h.
For the molecule `O=[N+]([O-])c1cccc2c(N=Nc3ccc4ccccc4c3O)c(O)cc(S(=O)(=O)O)c12`, the TGI is more than 100 µM.

In another test the test system is NCI/ADR-RES ovarian. Put plainly: inhibition of tumour cell growth, NCI panel, 48 h.
Consider `CON(C)C(=O)C1CCCO1` (configuration not stated), for which the TGI was more than 100 µM.

Regarding `O=C1OC(c2ccccc2)N(C(=O)c2ccccc2)C1Cc1ccc(OCc2ccccc2)cc1` (configuration not stated), the TGI is more than 100 µM.

`COc1ccc([C@H]2C=[N+]([O-])O[C@H](OC3CCCC3)[C@@H]2OC(C)=O)cc1OC` showed a TGI of 63.6 µM.

`O=[N+]([O-])c1cccc2c(N=Nc3ccc4ccccc4c3O)c(O)cc(S(=O)(=O)O)c12` had a TGI of more than 100 µM.

The subject of the next test is K-562 leukemia. Put plainly: inhibition of tumour cell growth, NCI panel, 48 h.
`CON(C)C(=O)C1CCCO1` (configuration not stated) registered a TGI of more than 100 µM.

Take `O=C1OC(c2ccccc2)N(C(=O)c2ccccc2)C1Cc1ccc(OCc2ccccc2)cc1` (configuration not stated): the TGI is more than 100 µM.

The molecule `COc1ccc([C@H]2C=[N+]([O-])O[C@H](OC3CCCC3)[C@@H]2OC(C)=O)cc1OC` came in with a TGI of more than 100 µM.

For the molecule `O=[N+]([O-])c1cccc2c(N=Nc3ccc4ccccc4c3O)c(O)cc(S(=O)(=O)O)c12`, the TGI is more than 100 µM.
